Laboratory results from patent publication US20240368583A1, “DNA CONSTRUCTS, RECOMBINANT CELLS COMPRISING THEREOF, BACTERIAL PROBES, METHODS FOR THEIR PREPARATION, AND METHOD OF USING THEREOF” (YEDA RESEARCH AND DEVELOPMENT CO. LTD., priority 2019, published 2024).

Legend:
[1] = test system: E. coli expressing His-OmpC; assay: Decorating bacteria with the oligonucleotides, fluorescence imaging; type: cell-based
Experimental: (§1) E. coli K-12 strain KRX (Promega) was used for protein expression. Transformed bacteria with the different OmpC constructs (OmpC or His-OmpC) were cultured to saturation in LB medium supplemented with 100 μg/ml of ampicillin at 30° C. 40 μl of the pre-cultured cells were then diluted into 4 ml of fresh LB medium supplemented with ampicillin, and incubated until the OD600 reaches ˜0.6. Protein expression was then induced by the addition of 0.1% Rhamnose and 20 μM isopropyl-b-D-1-thiogalactopyranoside (IPTG) and cultures were allowed to grow at 30° C. for 18 h. Then, the bacterial cells were harvested by centrifugation at 6,000 g for 4 min.
The bacterial cells (OmpC or His-OmpC) were collected by centrifugation at 6000 g for 4 min. The pellet was washed twice with PBS×1 buffer and resuspended in the same buffer to an OD600 of 0.3. […] Then the bacterial sample were washed twice with PBS, resuspended in 100 μl PBS and placed on a glass-bottom dish (P35G-1.5-14-C; MatTek) precoated with poly-1-lysine (Sigma Aldrich) and left to adhere for 1 h. Finally, the wells were washed vigorously with PBS three times and imaged using an Olympus IX51 fluorescent microscope. The samples were imaged using 60× or 100× objective lenses.

[2] = test system: E. coli expressing His-OmpC; assay: Treatment of the modified bacteria with EDTA; type: cell-based; conditions: 10 mM EDTA, 1 h
Experimental: Bacterial samples decorated with Compound 100 were incubated with various concentrations of EDTA (0, 5, 10 mM) for 1 h. Cells were then collected (6,000 g, 4 min) and washed twice with […] PBS buffer. Cells were resuspended in 100 μl PBS buffer and added to poly-1-lysine-coated slides for imaging.

[3] = test system: Native bacteria (that lack His-tag); assay: Decorating bacteria with the oligonucleotides, fluorescence imaging (native bacteria control); type: cell-based, E. coli; conditions: native bacteria lacking His-OmpC; 500 nM with Ni (II)
Experimental: as §1
The bacterial cells (OmpC or His-OmpC) were collected by centrifugation at 6000 g for 4 min. The pellet was washed twice with PBS×1 buffer and resuspended in the same buffer to an OD600 of 0.3. To a 100 μl sample of the bacteria suspension, a preincubated sample of DNA (500 nM) and NiCl2 (2.5 μM) was added, and the cells were incubated at room temperature for 1 h. Then the bacterial sample were washed twice with PBS, resuspended in 100 μl PBS and placed on a glass-bottom dish (P35G-1.5-14-C; MatTek) precoated with poly-1-lysine (Sigma Aldrich) and left to adhere for 1 h. Finally, the wells were washed vigorously with PBS three times and imaged using an Olympus IX51 fluorescent microscope. The samples were imaged using 60× or 100× objective lenses.

His-tagged bacteria = assay: Super-resolution (STORM) microscopy of decorated bacteria; type: cell-based, E. coli; conditions: duplex with ODN-1; transverse cut
Experimental: Super-resolution images were collected on a Vutara SR200 STORM (Bruker) microscope based on the single-molecule localization biplane technology. His-tagged bacteria was decorated with ODN-1:Compound 201 duplex according to the procedure described in above. The bacteria were imaged using 647 nm excitation laser and 405 nm activation laser in an imaging buffer composed of 5 mM cysteamine, oxygen scavengers (7 μM glucose oxidase and 56 nM catalase) in 50 mM Tris, 10 mM NaCl and 10% glucose at pH 8.0. Images were recorded using a 60×NA 1.2 water immersion objective (Olympus) and Evolve 512 EMCCD camera (Photometrics) with gain set at 50, frame rate at 50 Hz, and maximal power of 647 and 405 nm lasers set at 6 and 0.05 kW/cm^2, respectively. Total number of frames acquired was 8000. Data was analyzed by the Vutara SRX software.
Methods: Due to the small size of bacteria, super resolution (SR) microscopy was used to visualize E. Coli 's membrane with super resolution (SR). This was achieved by combining ODN-1 with a commercially available ODN-2 (Cy5-ODN-2; Compound 201) bearing a Cy5 dye, which is compatible with stochastic optical reconstruction microscopy (STORM).

[4] = target: Alexa 647-modified streptavidin (Streptomyces avidinii, UniProt P22629); assay: Bacteria-streptavidin interaction; type: cell-based; conditions: duplex with ODN-1 on His-tagged bacteria; Alexa-SA 500 nM, 1 h
Sequence of Alexa 647-modified streptavidin (P22629 25-183): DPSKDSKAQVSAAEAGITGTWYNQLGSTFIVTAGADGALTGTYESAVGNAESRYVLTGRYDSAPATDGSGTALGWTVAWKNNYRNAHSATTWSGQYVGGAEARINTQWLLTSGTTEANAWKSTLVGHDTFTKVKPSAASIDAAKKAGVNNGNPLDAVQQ
Experimental: His-tagged bacterial cells were decorated with a duplex consisting of ODN-1 and Compound 205 duplex according to a similar procedure described above. For binding with streptavidin, cells were incubated with Alexa-647 streptavidin conjugate (500 nM) in PBS×1 for 1 h, and after washing twice with PBS were imaged by fluorescent microscopy. The fluorescent signal was abolished when bacterial cells were treated with ODN-3 (3 μM) for 1 h. The control experiment was performed similarly using bacteria decorated with a duplex containing ODN-1 and the complementary strand.
Methods: His-tagged E. coli were incubated with an ODN-1 molecule and afterwards with a biotin-ODN-2 molecule (Compound 205). Then, the cells were incubated with an Alexa 647-modified streptavidin (FIG. 5A). To verify specificity, the same experiment was performed with an ODN-2 molecule lacking biotin (FIG. 5A). Cells were then incubated with ODN-3 to detach ODN-2 from the cell membranes.

[5] = Adhesion of modified bacteria to the solid support; conditions: duplex with ODN-1 on His-tagged bacteria; 15 min; control unmodified bacteria
Experimental: A solution of (11-mercaptoundecyl)tetra(ethylene glycol)^9 (2 mM in ethanol) were added to the gold coated substrates and incubated for 2 h. After removing the solution, the slides were washed four times with ethanol. Bacteria samples decorated with a duplex consisting of Compound 102 and Compound 207 were washed twice with PBS, resuspended in 100 μl phosphate buffer (pH=3.8), and then incubated on gold surfaces for 15 min. The solution containing bacteria was removed, and the slides were rinsed three times with PBS, and twice with water. Finally, they were imaged using an Olympus IX51 microscope.
Methods: His-tagged bacteria were decorated with a duplex assembled from ODN-1 and HS-ODN-2 (Compound 207), namely, an ODN-2 that is appended with a thiol group. HS is known to have high affinity to gold. In the following step, unmodified His-tagged bacteria and thiol-modified His-tagged bacteria (FIG. 6A) were incubated with a gold substrate that was previously passivated with (11-mercaptoundecyl)tetra(ethylene glycol) to prevent non-specific bacterial adhesion. Gold surfaces were observed after 15 min incubation. Cells were then incubated with ODN-3 to detach Compound 207 from bacteria membranes.

MDA-MB-435 cells = assay: Fluorescence imaging of bacteria-cell interaction, MDA-MB-435 cells; type: cell-based, human; conditions: bacteria linked to duplex with Compound 105; 20 min, washed
Experimental: (§2) Cells (15,000 cells/well) were seeded onto glass bottom culture dishes (MatTek) and allowed to adhere overnight. MDA-MB-435 cells were seeded in MEM medium supplemented with 5% charcoal dextran-stripped calf serum, 1% non-essential amino acids, 1% L-glutamine, and 1% penicillin/streptomycin. KB cells were plated in folate-depleted RPMI supplemented with 10% FBS and 1% penicillin/streptomycin while LNCaP were maintained in RPMI, 10% FBS, 1% L-glutamine, and 1% penicillin/streptomycin. Following day, medium was removed, rinsed thrice with PBS and then the cells were incubated with B-probes 1-4 (prepared by incubating His-bacteria with duplexes 1-4 at 500 nM concentration for 1 h at 25° C. followed by washing with PBS buffer) at 37° C., 5% CO2 in incubator for 20 min. Finally, the excess/unbound bacteria were gently washed off with PBS containing Ca^+2 and Mg^+2 (200 μL×3) and the cells were imaged using a fluorescence microscope with 60× objective lens. […]
(§3) MDA-MB-435 cells, LNCaP and KB cells were maintained in their respective media as mentioned in the previous section. […] After 20 minutes, the unbound bacteria were gently washed off with PBS containing Ca^+2 and Mg^+2 (200 μL×3) and the cells were imaged using a fluorescence microscope and a 60× objective lens.

LNCaP cells = assay: Fluorescence imaging of bacteria-cell interaction, LNCaP cells; type: cell-based, human; conditions: bacteria linked to duplex with Compound 105; 20 min, washed
Experimental: as §2, §3

Substance: Compound 100: X-ODN-1 with tri-NTA His-tag binder, appended with a Cy5 dye; ODN sequence SEQ ID NO. 1 (GCGGCGAGGCAGC; DNA, backbone and methylation of C not given here; Cy5 dye and tri-NTA His-tag binder attached)
- fluorescent decoration of bacteria ([1]; 500 nM in the absence of nickel ions): No fluorescence
- fluorescent decoration of bacteria ([1]; 500 nM with Ni (II)): successfully decorated
- removal from the cell surface by EDTA [2]: completely removed
- fluorescent decoration of bacteria [3]: No fluorescence

Substance: Compound 201: commercially available ODN-2 bearing a Cy5 dye; SEQ ID NO. 6 (TAGGATCAGGCAGCTATGACGTGAC; DNA, backbone and methylation of C not given here; Cy5 dye attached, commercially available)
- localisation of the label on bacteria (STORM) (His-tagged bacteria): only the outer membrane of the bacteria is labeled

Substance: Compound 205: biotin-ODN-2 molecule; SEQ ID NO. 6 (TAGGATCAGGCAGCTATGACGTGAC; DNA, backbone and methylation of C not given here; biotin attached)
- fluorescence of decorated bacteria after incubation with Alexa 647-modified streptavidin [4]: became fluorescent

Substance: Compound 207: ODN-2 that is appended with a thiol group; SEQ ID NO. 6 (TAGGATCAGGCAGCTATGACGTGAC; DNA, backbone and methylation of C not given here; thiol group appended)
- attachment of thiol-modified bacteria to the gold substrate compared with the control [5]: about 8.5 fold

Substance: Compound 220: alkyne modified Cy5-labeled ODN2 lacking the CSP binder; SEQ ID NO. 6 (DNA TAGGATCAGGCAGCTATGACGTGAC; DNA, backbone not given here; Cy5 label and alkyne modification, further chemistry not fully specified)
- fluorescent labeling of MDA-MB-435 cells (MDA-MB-435 cells): no labeling was achieved

Substance: Compound 230: alkyne modified FAM-labeled ODN2 lacking the CSP binder; SEQ ID NO. 6 (DNA TAGGATCAGGCAGCTATGACGTGAC; DNA, backbone not given here; FAM label and alkyne modification, further chemistry not fully specified)
- fluorescent labeling of LNCaP cells (LNCaP cells): no labeling was achieved
